Values quoted from earlier work, collected in US8642009B2, “Diagnostic system for the detection of skin cancer” (priority 2005, dated 2014).
Read-outs that look alike come from different tables or passages of the source. Marks after values point to notes of the source that are not given here. Each block holds one substance with its values, some of them ahead of it.

Assays:
αvβ3 = αvβ3 (Homo sapiens, UniProt P05106+P06756)
M21 human melanoma = conditions: M21 tumour model, 120 min p.i.
[1] = system: OVCAR-3 ovarian carcinoma; conditions: OVCAR-3 tumour model, 120 min p.i.; for Tumour/blood: estimated from graphical presentations
U87MG human glioblastoma = conditions: U87MG tumour model
[2] = system: Osteo murine osteosarcoma; conditions: Osteo tumour model
[3] = system: MDA-MB human breast cancer; conditions: MDA-MB tumour model, 120 min p.i.
[4] = system: CA20948 rat pancreatic tumour; conditions: CA20948 tumour model, 4 h p.i.
[5] = system: ACHN human renal adenocarcinoma; conditions: in vivo
[6] = system: DLD-1 human colon adenocarcinoma; conditions: DLD-1 tumour model, 60 min p.i.
[7] = 4 h p.i., estimated from graphical presentations

αvβ3, sequence (P06756 31-889 limits assumed): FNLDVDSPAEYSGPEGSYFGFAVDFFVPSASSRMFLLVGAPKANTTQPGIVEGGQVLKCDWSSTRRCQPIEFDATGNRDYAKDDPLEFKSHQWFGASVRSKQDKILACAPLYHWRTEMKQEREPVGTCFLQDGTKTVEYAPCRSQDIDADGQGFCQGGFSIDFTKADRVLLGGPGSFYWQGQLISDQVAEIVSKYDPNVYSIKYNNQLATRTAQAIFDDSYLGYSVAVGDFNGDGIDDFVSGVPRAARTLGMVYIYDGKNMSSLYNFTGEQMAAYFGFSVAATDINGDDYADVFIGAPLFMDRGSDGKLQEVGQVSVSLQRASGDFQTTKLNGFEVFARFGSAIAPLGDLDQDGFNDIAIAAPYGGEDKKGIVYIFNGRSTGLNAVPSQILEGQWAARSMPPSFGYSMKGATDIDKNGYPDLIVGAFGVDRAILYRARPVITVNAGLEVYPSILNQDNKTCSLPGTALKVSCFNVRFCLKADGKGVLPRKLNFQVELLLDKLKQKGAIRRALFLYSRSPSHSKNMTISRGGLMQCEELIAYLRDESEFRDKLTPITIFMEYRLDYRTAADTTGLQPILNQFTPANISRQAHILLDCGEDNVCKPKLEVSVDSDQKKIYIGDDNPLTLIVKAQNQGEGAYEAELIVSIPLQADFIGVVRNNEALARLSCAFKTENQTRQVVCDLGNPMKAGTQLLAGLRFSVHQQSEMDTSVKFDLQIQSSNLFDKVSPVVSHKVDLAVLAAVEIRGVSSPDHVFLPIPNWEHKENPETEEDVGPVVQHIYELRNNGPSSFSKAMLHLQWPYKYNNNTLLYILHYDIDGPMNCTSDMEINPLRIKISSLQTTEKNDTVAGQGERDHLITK
αvβ3, sequence (P06756 891-1048 partner limits assumed): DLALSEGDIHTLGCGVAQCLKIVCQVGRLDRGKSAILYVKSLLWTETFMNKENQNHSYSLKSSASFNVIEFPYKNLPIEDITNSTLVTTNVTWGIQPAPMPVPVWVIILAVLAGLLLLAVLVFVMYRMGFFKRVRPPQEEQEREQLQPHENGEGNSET
αvβ3, sequence (P05106 27-788): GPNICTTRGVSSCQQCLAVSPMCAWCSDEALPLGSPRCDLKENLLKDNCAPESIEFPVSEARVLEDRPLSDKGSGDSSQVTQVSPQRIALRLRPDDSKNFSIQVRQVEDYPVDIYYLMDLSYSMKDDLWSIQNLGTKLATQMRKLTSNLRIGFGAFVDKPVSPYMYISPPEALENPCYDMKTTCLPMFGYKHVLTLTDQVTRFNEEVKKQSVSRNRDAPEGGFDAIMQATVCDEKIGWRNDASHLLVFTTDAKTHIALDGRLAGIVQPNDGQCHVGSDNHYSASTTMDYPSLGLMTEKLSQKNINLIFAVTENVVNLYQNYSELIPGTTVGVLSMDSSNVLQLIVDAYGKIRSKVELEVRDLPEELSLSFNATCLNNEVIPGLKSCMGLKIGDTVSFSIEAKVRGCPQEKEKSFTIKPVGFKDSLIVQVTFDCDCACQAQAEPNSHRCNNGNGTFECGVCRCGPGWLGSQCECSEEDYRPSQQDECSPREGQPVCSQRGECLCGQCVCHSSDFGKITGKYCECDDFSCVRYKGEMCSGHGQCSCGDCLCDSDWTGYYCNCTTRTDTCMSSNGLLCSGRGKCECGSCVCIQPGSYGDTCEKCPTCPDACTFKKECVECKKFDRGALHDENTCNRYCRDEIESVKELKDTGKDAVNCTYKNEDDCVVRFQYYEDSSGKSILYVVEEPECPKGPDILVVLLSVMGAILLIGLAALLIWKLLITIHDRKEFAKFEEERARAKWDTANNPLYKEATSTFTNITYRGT

IC50 (αvβ3): 0.2 nM | Tumour uptake (M21 human melanoma): 1.7 ± 0.1^b % ID/g | Tumour/blood (M21 human melanoma): 21.3 | Tumour/muscle (M21 human melanoma): 23.1
Substance: ((c(RGDfE)HEG)2-K)2-Dpr

IC50 (αvβ3): 3 nM | Tumour uptake (M21 human melanoma): 1.6 ± 0.1^b % ID/g | Tumour/blood (M21 human melanoma): 12.4 | Tumour/muscle (M21 human melanoma): 14.2
Substance: (c(RGDfE)HEG)2-K-Dpr

Tumour uptake (M21 human melanoma): 1.1 ± 0.1^b % ID/g | Tumour/blood (M21 human melanoma): 9.7 | Tumour/muscle (M21 human melanoma): 8.1
Substance: DKCK-RGD

Tumour uptake [1]: 7.5 ± 1.5^b % ID/g | Tumour/blood [1]: 40^g ^
Substance: DOTA-E-[c(RGDfK])2

Tumour uptake (U87MG human glioblastoma; 120 min p.i.): 7.6 ± 0.6^b % ID/g
Substance: DOTA-E[E-c(RGDyK)z]2

Tumour uptake (U87MG human glioblastoma; 4 h p.i.): 1.6 ± 0.2^d % ID/g | Tumour/blood (U87MG human glioblastoma; [7]): 80^g ^ | Tumour/muscle (U87MG human glioblastoma; [7]): 16^g ^
Substance: DOTA-PEG-c(RGDyK)

Tumour uptake ([2]; 60 min p.i.): 1.1 ± 0.04^c % ID/g | Tumour/blood ([2]; 60 min p.i.): 11.8 | Tumour/muscle ([2]; 60 min p.i.): 2.8
Substance: DOTA-RGD

Tumour uptake [3]: 1.4 ± 0.1^b % ID/g | Tumour/blood [3]: 6.9 | Tumour/muscle [3]: 6
Substance: DOTA-c(RGDyK)

Tumour uptake [4]: 0.1 ± 0.02^d % ID/g | Tumour/blood [4]: 9.2 | Tumour/muscle [4]: 7.9
Substance: DTPA-RGD

Tumour uptake [3]: 1.0 ± 0.3^b % ID/g | Tumour/blood [3]: 12.2 | Tumour/muscle [3]: 5.8
Substance: FB-c(RGDyK)

Tumour uptake [3]: 4^b,g % ID/g
Substance: FP-E-c(RGDyK)2

Tumour uptake (U87MG human glioblastoma; 120 min p.i.): 2.6 ± 0.1^b % ID/g | Tumour/blood (U87MG human glioblastoma; 120 min p.i.): 18.4 | Tumour/muscle (U87MG human glioblastoma; 120 min p.i.): 25.6
Substance: FP-PEG-c(RGDyK)

Tumour uptake [1]: 5.8 ± 0.5^b % ID/g | Tumour/blood [1]: 10^g ^
Substance: HYNIC-E-[c(RGDfK])2

IC50 (αvβ3): 40 nM | Tumour uptake (M21 human melanoma): 1.8 ± 0.3^b % ID/g | Tumour/blood (M21 human melanoma): 7.9 | Tumour/muscle (M21 human melanoma): 6.2
Substance: RGD

Tumour/blood [5]: 1.6 | Tumour/muscle [5]: 2.6
Substance: RGD-4C

IC50 (αvβ3; IC50 value for the corresponding compound): 20 nM | Tumour uptake (M21 human melanoma): 0.5 ± 0.1^b % ID/g | Tumour/blood (M21 human melanoma): 12.4 | Tumour/muscle (M21 human melanoma): 13.2
Substance: c(RGDfE)HEG-Dpr

Tumour uptake [6]: 0.9 ± 0.1^c % ID/g | Tumour/blood [6]: 5.2 | Tumour/muscle [6]: 2.7
Substance: c(RGDfMe V)

Tumour uptake ([2]; 60 min p.i.): 0.4 ± 0.1^c % ID/g | Tumour/blood ([2]; 60 min p.i.): 1.1 | Tumour/muscle ([2]; 60 min p.i.): 2.7 | IC50 (αvβ3): 40 nM
Substance: c(RGDfY)

Tumour uptake ([2]; 120 min p.i.): 1.5 ± 0.2^b % ID/g | Tumour/blood ([2]; 120 min p.i.): 8.6 | Tumour/muscle ([2]; 120 min p.i.): 4.9 | IC50 (αvβ3): 10 nM
Substance: c(RGDy V)

Tumour uptake [3]: 3.0 ± 0.1^b % ID/g | Tumour/blood [3]: 20.2 | Tumour/muscle [3]: 4.7
Substance: c(RGDyK)

Tumour uptake (U87MG human glioblastoma; 120 min p.i.): 5.1 ± 0.3^b % ID/g | Tumour/blood (U87MG human glioblastoma; 120 min p.i.): 85
Substance: mPEG-c(RGDyK)
